In paper PMC9488896, “Hydroxamic Acid-Modified Peptide Library Provides Insights into the Molecular Basis for the Substrate Selectivity of HDAC Corepressor Complexes” (ACS Chemical Biology, 2022):
Where two headings read alike, the source gives them in different places. Residues, ends and D or L forms follow the SMILES beside them.

What was measured:
[1] = target: T1, HDAC1/MTA1(aa: 162–546)/RBBP4 core NuRD complex (HMR) (Homo sapiens, UniProt Q09028+Q13330+Q13547); assay: Boc-Lys HDAC inhibition assay; type: biochemical; conditions: 50 nM complex, 100 μM Boc-(Ac)Lys-AMC, 37 °C 30 min, technical replicates N = 2
T1 construct: made in house; host or cells: HEK293F
T1 sequence (Q13547 whole entry, species assumed): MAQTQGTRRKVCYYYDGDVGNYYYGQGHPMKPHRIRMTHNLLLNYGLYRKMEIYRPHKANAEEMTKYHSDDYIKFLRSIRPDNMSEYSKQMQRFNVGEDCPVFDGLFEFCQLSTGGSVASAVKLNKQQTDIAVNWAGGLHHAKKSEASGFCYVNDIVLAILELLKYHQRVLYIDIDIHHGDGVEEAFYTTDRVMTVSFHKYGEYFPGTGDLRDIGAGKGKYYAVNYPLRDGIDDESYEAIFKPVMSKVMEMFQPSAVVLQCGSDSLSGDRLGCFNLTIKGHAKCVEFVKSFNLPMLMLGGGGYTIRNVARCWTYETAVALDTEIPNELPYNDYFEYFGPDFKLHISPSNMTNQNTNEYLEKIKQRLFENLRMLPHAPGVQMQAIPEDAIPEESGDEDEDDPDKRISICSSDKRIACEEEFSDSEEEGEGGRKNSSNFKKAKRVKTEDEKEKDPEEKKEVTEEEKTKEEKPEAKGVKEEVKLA
T1 sequence (Q13330 162-546 partner limits assumed, species assumed): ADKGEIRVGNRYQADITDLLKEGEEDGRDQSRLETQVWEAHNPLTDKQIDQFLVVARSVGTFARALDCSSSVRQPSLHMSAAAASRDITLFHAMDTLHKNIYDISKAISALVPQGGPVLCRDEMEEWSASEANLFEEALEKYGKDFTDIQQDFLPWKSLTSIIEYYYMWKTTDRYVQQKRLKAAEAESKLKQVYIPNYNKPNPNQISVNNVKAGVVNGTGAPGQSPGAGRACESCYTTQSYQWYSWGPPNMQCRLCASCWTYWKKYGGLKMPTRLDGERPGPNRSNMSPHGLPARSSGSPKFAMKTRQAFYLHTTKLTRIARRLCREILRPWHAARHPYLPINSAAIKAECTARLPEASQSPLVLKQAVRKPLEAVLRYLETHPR
T1 sequence (Q09028 whole entry partner, species assumed): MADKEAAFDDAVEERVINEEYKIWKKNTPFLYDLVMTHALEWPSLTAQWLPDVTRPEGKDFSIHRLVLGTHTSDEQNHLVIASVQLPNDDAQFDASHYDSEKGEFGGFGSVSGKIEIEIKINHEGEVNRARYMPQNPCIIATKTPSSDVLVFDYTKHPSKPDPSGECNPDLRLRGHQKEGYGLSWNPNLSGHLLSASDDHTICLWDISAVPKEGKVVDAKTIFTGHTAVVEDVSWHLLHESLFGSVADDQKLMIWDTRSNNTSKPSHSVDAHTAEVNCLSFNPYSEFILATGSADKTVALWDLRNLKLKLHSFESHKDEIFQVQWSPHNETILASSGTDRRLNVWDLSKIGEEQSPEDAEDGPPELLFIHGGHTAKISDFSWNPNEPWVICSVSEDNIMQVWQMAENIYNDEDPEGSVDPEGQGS
Experimental: (§1) Inhibition assays with various peptide inhibitors were performed using a fluorescence-based assay. The inhibitor peptides were initially dissolved in 5% dimethyl sulfoxide (DMSO) at a stock concentration of 25 mM before being further diluted in the HDAC assay buffer (50 mM Tris/HCl, pH 7.5, 150 mM NaCl). Serial dilutions (1:3) of the inhibitor were prepared, starting at a concentration of 500 μM. HDAC complexes were diluted to a final concentration of 50 nM and incubated with the inhibitor for 20 min at rt. The Boc-(Ac)Lys-AMC substrate was added at a final concentration of 100 μM The final volume of the reaction was 50 μL. The reaction was incubated at 37 °C, 150 rpm, for 30 min, before a developer (50 mM Tris, pH 7.5, 100 mM NaCl, 10 mg/mL trypsin) was added. The reaction was incubated with the developer for 10 min before being measured (PerkinElmer, 2030 multilabel reader, VICTOR X5, excitation 335 nm, emission 460 nm). The absorbance of the buffer as the blank control was subtracted from the HDAC activity, and IC50 calculations were performed using the nonlinear regression log(inhibitor) vs response equation Y = bottom + (top – bottom)/(1+10^(X–Log IC50)) in Graphpad Prism 9.

CoREST complex = target: T2, CoREST complex (Homo sapiens, UniProt Q13547+Q9UKL0); assay: Boc-Lys HDAC inhibition assay; type: biochemical; conditions: HDAC complexes tables; 50 nM complex, 100 μM Boc-(Ac)Lys-AMC, 37 °C 30 min; technical replicates N = 2
T2 construct: made in house; host or cells: HEK293F
T2 sequence (Q13547 whole entry, other chains not shown): as the sequence (Q13547 whole entry, species assumed) above
T2 sequence (Q9UKL0 86-485 partner limits assumed, other chains not shown): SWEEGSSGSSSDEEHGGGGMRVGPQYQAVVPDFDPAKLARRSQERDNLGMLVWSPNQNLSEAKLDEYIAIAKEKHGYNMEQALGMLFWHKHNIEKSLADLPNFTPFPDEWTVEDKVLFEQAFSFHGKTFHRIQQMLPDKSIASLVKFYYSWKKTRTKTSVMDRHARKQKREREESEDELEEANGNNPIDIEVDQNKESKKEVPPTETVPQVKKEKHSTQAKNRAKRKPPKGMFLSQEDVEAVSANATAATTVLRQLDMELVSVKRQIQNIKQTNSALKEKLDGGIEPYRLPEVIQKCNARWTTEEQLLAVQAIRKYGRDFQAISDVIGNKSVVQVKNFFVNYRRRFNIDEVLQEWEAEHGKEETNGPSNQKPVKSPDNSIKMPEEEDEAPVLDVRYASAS
Text: (§2) Finally, we directed our attention toward assessing how the results from the experiments with HMR would be common to the other known class I HDAC corepressor complexes. RERE, MIER1, CoREST, HMR, MiDAC, Sin3A, and SMRT were expressed and purified, and the concentrations were normalized based on the concentration of HDAC1 or HDAC3 (Figure 4A). We determined the potency of H3(23–29)K27Hd 12 and H4(12–18)K16Hd 16 against RERE, MIER1, CoREST, NuRD, MiDAC, Sin3A, and SMRT (Figure 4B). In addition, we repeated the H3(23–29)K27Hd alanine scan experiment for each of these complexes to assess whether or not the importance of Lys23 for maintaining potency against HMR was replicated across the other complexes (Figure 4C).
as §1

MIER1 complex = target: T3, MIER1 complex (Homo sapiens, UniProt Q13547+Q8N108); assay: Boc-Lys HDAC inhibition assay; type: biochemical; conditions: HDAC complexes tables; 50 nM complex, 100 μM Boc-(Ac)Lys-AMC, 37 °C 30 min; technical replicates N = 2
T3 construct: made in house; host or cells: HEK293F
T3 sequence (Q13547 whole entry): as the sequence (Q13547 whole entry, species assumed) above
T3 sequence (Q8N108 whole entry partner): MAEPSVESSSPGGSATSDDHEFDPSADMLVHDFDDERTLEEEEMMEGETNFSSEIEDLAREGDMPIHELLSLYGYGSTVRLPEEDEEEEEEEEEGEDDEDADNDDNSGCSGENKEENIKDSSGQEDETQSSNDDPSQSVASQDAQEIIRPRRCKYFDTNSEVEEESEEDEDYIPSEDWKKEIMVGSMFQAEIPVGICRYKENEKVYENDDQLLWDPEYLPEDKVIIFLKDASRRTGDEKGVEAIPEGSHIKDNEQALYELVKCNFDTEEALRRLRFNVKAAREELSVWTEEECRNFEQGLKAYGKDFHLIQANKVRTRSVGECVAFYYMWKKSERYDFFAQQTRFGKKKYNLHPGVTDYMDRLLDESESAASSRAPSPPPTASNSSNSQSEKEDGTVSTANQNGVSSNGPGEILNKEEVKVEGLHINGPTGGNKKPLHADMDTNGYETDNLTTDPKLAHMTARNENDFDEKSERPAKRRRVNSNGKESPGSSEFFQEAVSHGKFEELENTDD
Text: as §2, §1

MiDAC complex = target: T4, MiDAC complex (Homo sapiens, UniProt Q13547+Q6PJG2+Q9H147); assay: Boc-Lys HDAC inhibition assay; type: biochemical; conditions: HDAC complexes tables; 50 nM complex, 100 μM Boc-(Ac)Lys-AMC, 37 °C 30 min; technical replicates N = 2
T4 construct: made in house; host or cells: HEK293F
T4 sequence (Q13547 whole entry): as the sequence (Q13547 whole entry, species assumed) above
T4 sequence (Q6PJG2 628-887 partner limits assumed): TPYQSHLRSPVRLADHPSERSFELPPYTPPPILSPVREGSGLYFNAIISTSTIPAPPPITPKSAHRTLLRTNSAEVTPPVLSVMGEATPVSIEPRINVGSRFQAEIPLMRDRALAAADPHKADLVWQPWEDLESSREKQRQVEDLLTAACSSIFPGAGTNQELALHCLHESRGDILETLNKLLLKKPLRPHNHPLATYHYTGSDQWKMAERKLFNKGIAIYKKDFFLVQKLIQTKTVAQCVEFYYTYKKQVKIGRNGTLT
T4 sequence (Q9H147 whole entry partner): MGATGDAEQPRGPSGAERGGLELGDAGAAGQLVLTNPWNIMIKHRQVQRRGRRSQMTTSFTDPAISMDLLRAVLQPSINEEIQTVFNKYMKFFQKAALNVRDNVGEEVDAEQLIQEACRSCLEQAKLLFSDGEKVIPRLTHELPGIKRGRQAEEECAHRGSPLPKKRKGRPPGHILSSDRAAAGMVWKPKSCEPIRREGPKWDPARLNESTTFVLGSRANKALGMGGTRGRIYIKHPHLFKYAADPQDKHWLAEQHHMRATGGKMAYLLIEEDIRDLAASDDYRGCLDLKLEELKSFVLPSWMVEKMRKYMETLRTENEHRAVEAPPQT
Text: as §2, §1

RERE complex = target: T5, RERE complex (Homo sapiens, UniProt Q13547+Q9P2R6); assay: Boc-Lys HDAC inhibition assay; type: biochemical; conditions: HDAC complexes tables; 50 nM complex, 100 μM Boc-(Ac)Lys-AMC, 37 °C 30 min; technical replicates N = 2
T5 construct: made in house; host or cells: HEK293F
Text: as §2, §1

SMRT complex (HDAC3) = target: T6, SMRT complex (HDAC3) (Homo sapiens, UniProt O15379); assay: Boc-Lys HDAC inhibition assay; type: biochemical; conditions: HDAC complexes tables; 50 nM complex, 100 μM Boc-(Ac)Lys-AMC, 37 °C 30 min; technical replicates N = 2
T6 construct: made in house; host or cells: HEK293F
T6 sequence (O15379 whole entry, species assumed, one chain of several): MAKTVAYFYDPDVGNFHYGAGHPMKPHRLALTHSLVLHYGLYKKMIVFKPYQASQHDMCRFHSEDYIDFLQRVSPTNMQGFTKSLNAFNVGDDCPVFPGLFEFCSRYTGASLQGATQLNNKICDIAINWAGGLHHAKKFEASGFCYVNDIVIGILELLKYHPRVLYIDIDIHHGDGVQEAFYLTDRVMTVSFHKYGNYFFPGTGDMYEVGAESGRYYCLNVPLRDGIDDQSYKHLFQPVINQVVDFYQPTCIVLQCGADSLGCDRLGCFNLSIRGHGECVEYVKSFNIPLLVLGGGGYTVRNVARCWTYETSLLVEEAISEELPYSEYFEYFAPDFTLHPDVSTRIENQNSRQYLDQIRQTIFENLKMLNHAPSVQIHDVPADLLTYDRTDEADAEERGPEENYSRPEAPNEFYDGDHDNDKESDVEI
Text: as §2, §1

Sin3A complex = target: T7, Sin3A complex (Homo sapiens, UniProt Q13547); assay: Boc-Lys HDAC inhibition assay; type: biochemical; conditions: HDAC complexes tables; 50 nM complex, 100 μM Boc-(Ac)Lys-AMC, 37 °C 30 min; technical replicates N = 2
T7 construct: made in house; host or cells: HEK293F
Text: as §2, §1

HMR complex = target: T8, HMR complex (Homo sapiens, UniProt Q09028+Q13330+Q13547); assay: Fluorescence polarization binding assay; conditions: 10 nM FTU-labeled peptide, increasing HMR, 30 min rt; one-site binding fit; technical replicates N = 2; read-out: KD of Fluorescein-labelled peptides against HMR
T8 construct: made in house; host or cells: HEK293F
Experimental: We aimed first to validate the results of the activity assay with the hydroxamic acid-containing peptides in terms of binding kinetics. To this end, we designed and synthesized fluorescein-labeled analogues (FTU) of the key peptides identified from the inhibition assay: FTU-H3(6−12)K9Hd 17, FTU-H3(23–29)K27Hd 18, FTU-H4(8−14)K12Hd 19, and FTU-H4(12−18)K16Hd 20. […] These peptides were then tested in an FP assay to measure their binding affinity for the HMR complex (Figure 2D).
The fluorescence polarization assay was performed using 96-well black plates (Corning). FTU (10 nM)-labeled peptides (peptides 17–20) were incubated with increasing concentrations of HMR for 30 min at rt. The plate was shaken before being read on a Victor X5 Plate reader (Perkin Elmer). […] values were calculated using the nonlinear regression one-site binding equation Y = Bmax × X/(KD + X) using Graphpad Prism 9.

[2] = alanine scan / H4K12Hd experiments, 20 min preincubation rt, read-out: IC50 of HMR against H3 K27Hd, H4 K16Hd and H4K12Hd peptides

Compound	IC50 [1, 2]	IC50 (CoREST complex)	IC50 (MIER1 complex)	IC50 (MiDAC complex)	IC50 (RERE complex)	IC50 (SMRT complex (HDAC3))	IC50 (Sin3A complex)	Kd (HMR complex)	IC50 ([1]; HDAC complexes tables, read-out: IC50, HMR (NuRD))	IC50 ([1]; inhibitor library experiment, 20 min preincubation rt, fluorescence, read-out: IC50 of HMR against histone peptide library)
CC(=O)N[C@@H](CCCCN)C(=O)N[C@@H](C)C(=O)N[C@@H](C)C(=O)N[C@@H](CCCNC(=N)N)C(=O)N[C@@H](CCCCCC(=O)NO)C(=O)N[C@@H](C)C(=O)N[C@@H](C)C(N)=O [compound 23, H3 (23-29) K27Hd S28A] (HELM PEPTIDE1{[ac].K.A.A.R.[O=C([C@H](CCCCCC(=O)[*:3])N[*:1])[*:2]].A.A.[am]}|CHEM1{[ON[*:1]]}$PEPTIDE1,CHEM1,6:R3-1:R1$$$V2.0)	0.308 µM	0.234 µM	0.342 µM	0.48 µM	0.408 µM	0.379 µM	0.272 µM			
CC(=O)N[C@@H](CCCCN)C(=O)NCC(=O)N[C@@H](CC(C)C)C(=O)NCC(=O)N[C@@H](CCCCCC(=O)NO)C(=O)NCC(=O)NCC(N)=O [compound 27, H4(8–14)K12Hd] (HELM PEPTIDE1{[ac].K.G.L.G.[O=C([C@H](CCCCCC(=O)[*:3])N[*:1])[*:2]].G.G.[am]}|CHEM1{[ON[*:1]]}$PEPTIDE1,CHEM1,6:R3-1:R1$$$V2.0)								0.288 µM		
CC(=O)N[C@@H](CCCCN)C(=O)N[C@@H](C)C(=O)N[C@@H](C)C(=O)N[C@@H](CCCNC(=N)N)C(=O)N[C@@H](CCCCCC(=O)NO)C(=O)N[C@@H](CO)C(=O)N[C@@H](C)C(N)=O [compound 12, H3(23–29)K27Hd] (HELM PEPTIDE1{[ac].K.A.A.R.[O=C([C@H](CCCCCC(=O)[*:3])N[*:1])[*:2]].S.A.[am]}|CHEM1{[ON[*:1]]}$PEPTIDE1,CHEM1,6:R3-1:R1$$$V2.0)	0.133 µM		0.106 µM	0.151 µM	0.209 µM	0.128 µM	0.145 µM	0.06 µM	0.05 µM	0.134 µM
